Patent US11643478B2, “Low-molecular-weight holothurian glycosaminoglycan and use thereof” (Suzhou Yi-hua Biomedical Technology co., Ltd, priority 2019, dated 2023)

How the values were obtained:
[1] = test system: rat's learning and memory abilities of scopolamine model; test: Morris water maze test, rat dysmnesia model induced by scopolamine; type: in vivo, SD rats; settings: intragastric for 2 weeks, LHG 30 mg/Kg, Donepezil 1 mg/Kg; scopolamine i.p.
Method: Grouping and dose: blank control group, scopolamine model group (SCOP), positive control group:(Donepezil, 1 mg/Kg), LHG drug group (30 mg/Kg). Administration: intragastric administration. […] Morris training on Day 9 (2 times per day). Morris water maze test and platform jumping test on Day 14. Modeling method and test of learning and memory: on the day of the test, rats of scopolamine model group, positive control group and LHG drug group were injected with scopolamine hydrobromide through peritoneal cavity (firstly injection dose is 2 mg/Kg for 2 days, then injection dose is 2 mg/Kg on Day 3) at 30 minutes after intragastric administration, while rats of blank control group were injected with equal volume of normal saline through peritoneal cavity. Morris water maze test was conducted at 20 minutes after injection. The route, time and speed of the rats in the 90s were recorded automatically with computer by the camera tracking on the swimming performance of the rats, then the escaping-incubation time of seeking the platform and swimming distance were calculated.

[2] = test system: rat's learning and memory abilities of scopolamine model; test: Platform jumping test, rat dysmnesia model induced by scopolamine; type: in vivo, SD rats; settings: intragastric for 2 weeks, LHG 30 mg/Kg, Donepezil 1 mg/Kg, scopolamine 5 mg/Kg i.p.
Method: Grouping and dose: blank control group, scopolamine model group (SCOP), positive control group:(Donepezil, 1 mg/Kg), LHG drug group (30 mg/Kg). Administration: intragastric administration. […] Morris training on Day 9 (2 times per day). Morris water maze test and platform jumping test on Day 14. Platform jumping test: Learning and training on the first day, the repeated tests were conducted on the second day. Rats of scopolamine model group, positive control group and LHG drug group were injected with scopolamine hydrobromide through peritoneal cavity (5 mg/Kg) at 20 minutes before the test, while rats of blank control group were injected with equal volume of normal saline through peritoneal cavity. The incubation time of jumping off the platform for the first time (SDL) and the incubation time of avoiding electric shock (EL) were recorded.

[3] = test system: xylene inducing murine auricle swelling; test: Xylene inducing murine auricle swelling (anti-inflammation effect); type: in vivo; settings: mice, subcutaneous injection 0.01 mL/1 g for 5 days (LHG 100 mg/mL, dexamethasone 50 mg/mL), 1 h after xylene
Method: Drug preparation: LHG was added in ionized water to obtain 100 mg/mL LHG solution. Positive contrast: dexamethasone was added in ionized water to obtain 50 mg/mL dexamethasone solution. Blank contrast: ionized water.
Administration: sub cutaneous injection.
Experimental process: healthy mice are randomly divided into three groups (six in each group, half male and half female), name as LHG drug group, positive control group and blank control group. Three groups' mice were injected with 0.01 mL/1 g of LHG, dexamethasone and ionized water respectively. Drug was administered continuously for 5 days. 30 μL of xylenes was evenly smeared on both sides of the right ear of the mice to induce inflammation at 30 min after the last administration. The left ear was used as the reference. At 1 h after inducing inflammation, mice were executed by removing cervical vertebra. The ear pieces of the same part in the left and right ears were obtained with a hole punter, then the auricle swelling rate and inhibition rate of auricle swelling were calculated by weighing with an analytical balance.

Row | SMILES | Escaping-incubation time [1] [s] | Swimming distance (cm) [1] [cm] | Incubation time of avoiding electric shock ([2]; EL) [s] | Incubation time of jumping off the platform for the first time ([2]; SDL) [s] | Auricle swelling rate [3] | Inhibition rate of auricle swelling [3] [%]
1 | COc1cc2c(cc1OC)C(=O)C(CC1CCN(Cc3ccccc3)CC1)C2 (stereo not drawn) [Donepezil] | 37.20 ± 12.72 | 1652.25 ± 295.02 | 115.28 ± 17.54 | 48.75 ± 9.84 |  | 
2 | C[C@@H]1C[C@H]2[C@@H]3CCC4=CC(=O)C=C[C@]4(C)[C@@]3(F)[C@@H](O)C[C@]2(C)[C@@]1(O)C(=O)CO [dexamethasone] |  |  |  |  | 102.9% ± 11.3% | 24.6
